One data set has as its target δ receptor (Homo sapiens, UniProt P41143). Kind of data set: δ-Binding, replacement of 3H-naltrindole.
The next data set has as its target T1, MVD (δ-receptor) (Mus musculus, UniProt P32300).
T1 construct: The vas is then mounted under 0.5 g tension in a 5 ml organ bath; from tissue; host or cells: mouse vas deferens (Swiss Webster)
Kind of data set: cell-based.

Another data set relates to SSTR2 receptor. Kind of data set: Inhibition of radioligand binding to cloned somatostatin receptor SSTR2. Conditions: for pIC50: cloned receptor, radioligand binding, read-out: SSTR2 receptor binding constant IC50.
The next data set concerns the target SSTR4 receptor. Description: Inhibition of radioligand binding to cloned somatostatin receptor SSTR4. The note with it: for pIC50: cloned receptor, radioligand binding, read-out: SSTR4 receptor binding constant IC50.
Data set [1] in a line: Enzymatic degradation of enkephalin analogs (half-life).
Where [2] appears, read: inhibition of electrically evoked twitch of mouse vas deferens, read-out: MVD IC50.

pIC50: −log10 of the molar value. Where two headings read alike, the source gives them in different places.

Broadly, the pIC50 is the IC50 on a negative log10 scale, so that one unit is a factor of ten. For orientation: half-life means the time in which the quantity being followed falls by half. Read a low half-life as rapid decline.

T1 sequence (P32300 whole entry): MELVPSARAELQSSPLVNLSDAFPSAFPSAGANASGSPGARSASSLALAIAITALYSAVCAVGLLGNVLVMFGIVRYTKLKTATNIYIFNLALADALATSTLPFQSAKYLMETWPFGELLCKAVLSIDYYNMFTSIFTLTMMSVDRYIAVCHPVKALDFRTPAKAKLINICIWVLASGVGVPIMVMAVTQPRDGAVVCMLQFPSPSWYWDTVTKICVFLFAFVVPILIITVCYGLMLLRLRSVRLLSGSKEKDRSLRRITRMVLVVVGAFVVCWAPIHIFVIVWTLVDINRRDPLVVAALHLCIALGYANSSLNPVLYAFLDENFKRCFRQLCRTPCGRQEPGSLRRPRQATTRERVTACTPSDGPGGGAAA
Sequence of δ receptor (P41143 whole entry): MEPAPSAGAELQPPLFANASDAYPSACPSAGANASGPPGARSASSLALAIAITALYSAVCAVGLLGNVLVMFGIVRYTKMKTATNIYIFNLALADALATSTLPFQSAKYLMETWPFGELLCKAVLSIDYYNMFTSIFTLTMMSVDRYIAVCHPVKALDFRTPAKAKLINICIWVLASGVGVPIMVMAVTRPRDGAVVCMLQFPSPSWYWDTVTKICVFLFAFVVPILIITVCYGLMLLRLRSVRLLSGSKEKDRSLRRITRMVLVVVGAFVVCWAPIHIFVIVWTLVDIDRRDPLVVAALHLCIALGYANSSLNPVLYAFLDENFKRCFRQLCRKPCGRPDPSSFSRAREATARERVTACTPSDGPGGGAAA

`N[C@@H](Cc1ccc(O)cc1)C(=O)N[C@@H]1CSC[C@@H](C(=O)O)NC(=O)[C@H](Cc2ccccc2)NC(=O)CNC1=O` [Tyr-c[D-AlaL-Gly-Phe-L-AlaL]-OH]: the negative logarithm of the IC50 (pIC50) at δ receptor was 9.00; against MVD (δ-receptor) it was 9.80.
As for `NC(=O)[C@@H]1CSC[C@@H](NC(=O)[C@@H](N)Cc2ccc(O)cc2)C(=O)NCC(=O)N[C@@H](Cc2ccccc2)C(=O)N1` [Tyr-c[D-AlaL-Gly-Phe-L-AlaL]-NH2], the negative-log IC50 (pIC50) is 8.15 on δ receptor and 9.27 on MVD (δ-receptor) (setting [2]).
c[AlaL3, AlaL14]-Somatostatin-14: in the data set with SSTR2 receptor, the “affinity/potency on SSTR2, in words” value was “same binding affinity” and the pIC50 is 9.52.
With “H-D-Phe-c[AlaLPhe-D-Trp-Lys-Thr-AlaL]-Thr-ol”, the pIC50 was 9.00 at SSTR4 receptor and 8.30 on SSTR2 receptor.
`NC(=O)[C@@H]1CSC[C@@H](NC(=O)[C@@H](N)Cc2ccc(O)cc2)C(=O)NCC(=O)N[C@@H](Cc2ccccc2)C(=O)N1` [Lanthionine-enkephalin] returned a half-life in data set [1] of 20.4 h.
Regarding `NC(=O)[C@H]1CSC[C@@H](NC(=O)[C@@H](N)Cc2ccc(O)cc2)C(=O)NCC(=O)N[C@@H](Cc2ccccc2)C(=O)N1` [Tyr-c[D-AlaL-Gly-Phe-D-AlaL]-NH2], the pIC50 on MVD (δ-receptor) (setting [2]) was 8.78.
In data set [1], `NC(=O)[C@@H]1CSSC[C@@H](NC(=O)[C@@H](N)Cc2ccc(O)cc2)C(=O)NCC(=O)N[C@@H](Cc2ccccc2)C(=O)N1` [Disulfide-enkephalin, reference compound] yielded a half-life of 5.53 h.
As for “H-D-Phe-c[AlaLPhe-D-Trp-Lys-Thr-AlaL]-Thr-NH2”, in the data set on SSTR4 receptor, the “selectivity for SSTR4 (SSTR2/SSTR4 IC50) compared with the octapeptide alcohols” value is “four times” and the pIC50 was 9.30. Besides, the pIC50 at SSTR2 receptor was 8.00.
As to Sandostatin [reference compound], the figures for the pIC50 on SSTR4 receptor and at SSTR2 receptor were 9.24 and 8.62, respectively.
“H-D-Phe-c[AlaLPhe-D-Trp-Lys-Thr-AlaL]-OH”: the pIC50 at SSTR4 receptor was 6.30.
On to `C[C@H](N)C(=O)NCC(=O)N[C@H]1CSSC[C@@H](C(=O)O)NC(=O)[C@H](CO)NC(=O)[C@H]([C@@H](C)O)NC(=O)[C@H](Cc2ccccc2)NC(=O)[C@H]([C@@H](C)O)NC(=O)[C@H](CCCCN)NC(=O)[C@H](Cc2c[nH]c3ccccc23)NC(=O)[C@H](Cc2ccccc2)NC(=O)[C@H](Cc2ccccc2)NC(=O)[C@H](CC(N)=O)NC(=O)[C@H](CCCCN)NC1=O` [Somatostatin-14, reference compound], for which the pIC50 on SSTR4 receptor is 9.07; at SSTR2 receptor it was 9.55.

The record behind these values is patent US6673769B2, “Lanthionine bridged peptides” (priority 1991, dated 2004).
